Measured values: PubChem BioAssay (NCI)
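GI50 marks 50% less growth. TGI is the concentration that stops growth completely.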

Columns and labels:
Assay in all cases: growth of human tumour cells (NCI), 384-well format
LOX IMVI melanoma = test system: LOX IMVI melanoma
SF-268 CNS = test system: SF-268 CNS
SF-295 CNS = test system: SF-295 CNS
OVCAR-4 ovarian = test system: OVCAR-4 ovarian
HOP-62 NSCLC = test system: HOP-62 NSCLC
KM12 colon = test system: KM12 colon
M14 melanoma = test system: M14 melanoma
MDA-MB-468 breast = test system: MDA-MB-468 breast
CAKI-1 renal = test system: CAKI-1 renal
HCT-15 colon = test system: HCT-15 colon
NCI-H23 lung = test system: NCI-H23 lung
IGROV1 ovarian = test system: IGROV1 ovarian
UACC-62 melanoma = test system: UACC-62 melanoma
786-0 renal = test system: 786-0 renal
U251 glioblastoma = test system: U251 glioblastoma
SNB-75 CNS = test system: SNB-75 CNS
NCI/ADR-RES ovarian = test system: NCI/ADR-RES ovarian
SF-539 CNS = test system: SF-539 CNS
T-47D breast = test system: T-47D breast
HT29 colon = test system: HT29 colon
CCRF-CEM leukemia = test system: CCRF-CEM leukemia
SN12C renal = test system: SN12C renal
NCI-H522 lung = test system: NCI-H522 lung
DU-145 prostate = test system: DU-145 prostate
HCC-2998 colon = test system: HCC-2998 colon
RPMI-8226 leukemia = test system: RPMI-8226 leukemia
SK-MEL-28 melanoma = test system: SK-MEL-28 melanoma
SNB-19 CNS = test system: SNB-19 CNS
A549 NSCLC = test system: A549 NSCLC
K-562 leukemia = test system: K-562 leukemia
MDA-MB-231 breast = test system: MDA-MB-231 breast
RXF 393 renal = test system: RXF 393 renal
SW-620 colon = test system: SW-620 colon
TK-10 renal = test system: TK-10 renal
HCT-116 colon = test system: HCT-116 colon
UACC-257 melanoma = test system: UACC-257 melanoma
SK-MEL-5 melanoma = test system: SK-MEL-5 melanoma
MCF7 breast = test system: MCF7 breast
OVCAR-5 ovarian = test system: OVCAR-5 ovarian
NCI-H226 lung = test system: NCI-H226 lung
SK-MEL-2 melanoma = test system: SK-MEL-2 melanoma
UO-31 renal = test system: UO-31 renal
MDA-MB-435 melanoma = test system: MDA-MB-435 melanoma
OVCAR-3 ovarian = test system: OVCAR-3 ovarian
PC-3 prostate = test system: PC-3 prostate
ACHN renal = test system: ACHN renal
COLO 205 colon = test system: COLO 205 colon

N#Cc1c(N)nc(N)nc1N[C@H](c1nc2c(F)ccc(Cl)c2c(=O)n1-c1cccnc1)C1CC1 showed a GI50 (LOX IMVI melanoma) of 5.13 µM, a TGI (LOX IMVI melanoma) of 18.6 µM and a GI50 (SF-268 CNS) of 13.9 µM. For the same molecule, the TGI (SF-268 CNS) was 51.1 µM, the GI50 (SF-295 CNS) was 2.37 µM and the TGI (SF-295 CNS) was 18.4 µM. It also gave a GI50 (OVCAR-4 ovarian) of 10.8 µM, a TGI (OVCAR-4 ovarian) of 52.7 µM and a GI50 (HOP-62 NSCLC) of 17.9 µM. It also gave a TGI (HOP-62 NSCLC) greater than 65.3 µM, a GI50 (KM12 colon) of 17.8 µM and a TGI (KM12 colon) of 52.3 µM. The GI50 (M14 melanoma) was 79 µM, the TGI (M14 melanoma) was greater than 100 µM and the GI50 (MDA-MB-468 breast) was 0.912 µM. It also gave a TGI (MDA-MB-468 breast) of 5.94 µM, a GI50 (CAKI-1 renal) of 2.3 µM and a TGI (CAKI-1 renal) greater than 100 µM. It also gave a GI50 (HCT-15 colon) of 16.1 µM, a TGI (HCT-15 colon) of 44.9 µM and a GI50 (NCI-H23 lung) of 15.3 µM. For the same molecule, the TGI (NCI-H23 lung) was 54.8 µM, the GI50 (IGROV1 ovarian) was 1.64 µM and the TGI (IGROV1 ovarian) was 4.18 µM. It also gave a GI50 (UACC-62 melanoma) of 3.23 µM, a TGI (UACC-62 melanoma) of 58.9 µM and a GI50 ([…]-0 renal) of 3.51 µM. For the same molecule, the TGI (786-0 renal) was 24.4 µM, the GI50 (U251 glioblastoma) was 18.3 µM and the TGI (U251 glioblastoma) was 61.9 µM. For the same molecule, the GI50 (SNB-75 CNS) was 0.67 µM, the TGI (SNB-75 CNS) was 5.1 µM and the GI50 (NCI/ADR-RES ovarian) was 34.2 µM. For the same molecule, the TGI (NCI/ADR-RES ovarian) was greater than 100 µM, the GI50 (SF-539 CNS) was 5.96 µM and the TGI (SF-539 CNS) was 44.5 µM. The GI50 (T-47D breast) was 1.02 µM, the TGI (T-47D breast) was 5.99 µM and the GI50 (HT29 colon) was 13.4 µM. It also gave a TGI (HT29 colon) of 42 µM, a GI50 (CCRF-CEM leukemia) of 1.42 µM and a TGI (CCRF-CEM leukemia) of 10.6 µM. The GI50 (SN12C renal) was 4.29 µM, the TGI (SN12C renal) was greater than 100 µM and the GI50 (NCI-H522 lung) was 16.9 µM. For the same molecule, the TGI (NCI-H522 lung) was 48.5 µM, the GI50 (DU-145 prostate) was 13.4 µM and the TGI (DU-145 prostate) was greater than 85.1 µM. It also gave a GI50 (HCC-2998 colon) of 11 µM, a TGI (HCC-2998 colon) of 24.5 µM and a GI50 (RPMI-8226 leukemia) of 3.36 µM. For the same molecule, the TGI (RPMI-8226 leukemia) was 10.3 µM, the GI50 (SK-MEL-28 melanoma) was 3.88 µM and the TGI (SK-MEL-28 melanoma) was greater than 100 µM. For the same molecule, the GI50 (SNB-19 CNS) was 15 µM, the TGI (SNB-19 CNS) was 31.8 µM and the GI50 (A549 NSCLC) was 9.47 µM. It also gave a TGI (A549 NSCLC) of 30.1 µM, a GI50 (K-562 leukemia) of 17.8 µM and a TGI (K-562 leukemia) of 38.1 µM. For the same molecule, the GI50 (MDA-MB-231 breast) was 9.59 µM, the TGI (MDA-MB-231 breast) was 34.2 µM and the GI50 (RXF 393 renal) was 0.2 µM. The TGI (RXF 393 renal) was 0.936 µM, the GI50 (SW-620 colon) was 11.9 µM and the TGI (SW-620 colon) was 36.3 µM. For the same molecule, the GI50 (TK-10 renal) was 4.55 µM, the TGI (TK-10 renal) was 29.1 µM and the GI50 (HCT-116 colon) was 16.1 µM. For the same molecule, the TGI (HCT-116 colon) was 35.9 µM, the GI50 (UACC-257 melanoma) was 19.5 µM and the TGI (UACC-257 melanoma) was greater than 100 µM. The GI50 (SK-MEL-5 melanoma) was 12.6 µM, the TGI (SK-MEL-5 melanoma) was 34.3 µM and the GI50 (MCF7 breast) was 2.73 µM. For the same molecule, the TGI (MCF7 breast) was greater than 100 µM, the GI50 (OVCAR-5 ovarian) was 9.12 µM and the TGI (OVCAR-5 ovarian) was 43.1 µM. It also gave a GI50 (NCI-H226 lung) of 15.6 µM, a TGI (NCI-H226 lung) greater than 57.7 µM and a GI50 (SK-MEL-2 melanoma) of 17.3 µM. For the same molecule, the TGI (SK-MEL-2 melanoma) was 39.3 µM, the GI50 (UO-31 renal) was 2.64 µM and the TGI (UO-31 renal) was 8.87 µM. The GI50 (MDA-MB-435 melanoma) was 35.4 µM, the TGI (MDA-MB-435 melanoma) was greater than 100 µM and the GI50 (OVCAR-3 ovarian) was 0.728 µM. It also gave a TGI (OVCAR-3 ovarian) of 6.73 µM, a GI50 (PC-3 prostate) of 1.08 µM and a TGI (PC-3 prostate) of 14 µM. The GI50 (ACHN renal) was 7.04 µM, the TGI (ACHN renal) was greater than 100 µM and the GI50 (COLO 205 colon) was 19.8 µM. For the same molecule, the TGI (COLO 205 colon) was greater than 91.6 µM.
